Results: US20260109707A1, “HETEROBIFUNCTIONAL COMPOUNDS AND METHODS OF TREATING DISEASE” (Halda Therapeutics OpCo. Inc., priority 2022, published 2026)

Assays:
[1] = system: T47D cells; experiment: Cellular growth inhibition assay for T47D cells (CellTiter-Glo, 72 hours); type: cell-based, human; details: Homo sapiens, T47D, 72 h, 72 hours treatment
Summary of the method: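 Growth inhibition as GI50, fitted with four parameters to CellTiter-Glo luminescence after 72 h of compound exposure (0.5% DMSO). Cells were T47D, grown in insulin-supplemented (0.2 units/mL) DMEM with 10% FBS and treated one day post-seeding.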

[2] = target: T1, androgen receptor (Homo sapiens, UniProt P10275); experiment: Assay for binding affinity to androgen receptor ([3H]methyltrienolone radioligand, cell cytosol); details: binding to the androgen receptor, Table 3
T1 sequence (P10275 1-920 T878A): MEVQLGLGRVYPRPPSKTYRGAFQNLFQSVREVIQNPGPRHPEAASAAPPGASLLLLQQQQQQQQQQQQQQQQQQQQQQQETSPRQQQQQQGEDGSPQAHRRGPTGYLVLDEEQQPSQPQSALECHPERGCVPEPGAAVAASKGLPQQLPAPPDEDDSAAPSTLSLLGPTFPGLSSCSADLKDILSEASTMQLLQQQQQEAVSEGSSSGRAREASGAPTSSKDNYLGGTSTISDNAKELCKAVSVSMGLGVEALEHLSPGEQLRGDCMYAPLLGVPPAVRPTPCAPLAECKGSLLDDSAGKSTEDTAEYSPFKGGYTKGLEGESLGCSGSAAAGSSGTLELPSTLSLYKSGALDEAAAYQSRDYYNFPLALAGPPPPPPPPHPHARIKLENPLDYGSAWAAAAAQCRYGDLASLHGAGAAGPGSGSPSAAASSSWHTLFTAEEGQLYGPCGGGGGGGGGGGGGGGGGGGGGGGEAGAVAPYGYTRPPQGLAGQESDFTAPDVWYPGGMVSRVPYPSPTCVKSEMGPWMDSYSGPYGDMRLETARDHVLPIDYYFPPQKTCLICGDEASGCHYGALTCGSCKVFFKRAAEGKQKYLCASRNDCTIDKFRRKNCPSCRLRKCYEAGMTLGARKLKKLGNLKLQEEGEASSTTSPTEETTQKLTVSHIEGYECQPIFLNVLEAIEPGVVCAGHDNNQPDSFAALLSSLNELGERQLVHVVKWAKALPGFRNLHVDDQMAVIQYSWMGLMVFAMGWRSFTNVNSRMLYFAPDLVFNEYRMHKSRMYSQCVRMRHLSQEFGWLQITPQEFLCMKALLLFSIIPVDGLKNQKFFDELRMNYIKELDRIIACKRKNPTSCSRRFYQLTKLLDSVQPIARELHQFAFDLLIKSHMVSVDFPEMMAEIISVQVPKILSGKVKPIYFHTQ
Description: Fractions of cell cytosol ([…]) were incubated for 24 hr at 4° C. with 1 nM [^3H]methyltrienolone in the absence or presence of the test compound in a buffer containing 25 mM Hepes-Tris (pH 7.4), 1 mM EDTA, 10 mM Na2MoO4, 2 mM DTT, 5 μM triamcinolone acetonide, and 10% glycerol. Nonspecific binding was determined in the presence of […] testosterone. Following incubation, the samples were filtered rapidly under vacuum through glass fiber filters (GF/B, Packard) presoaked with 0.3% PEI and rinsed several times with ice-cold 50 mM Tris-HCl using a 96-sample cell harvester (Unifilter, Packard). The filters were dried then counted for radioactivity in a scintillation counter (Topcount, Packard) using a scintillation cocktail (Microscint 0, Packard). The results are expressed as a percent inhibition of the control radioligand specific binding. The standard reference compound is testosterone, which is tested in each experiment at several concentrations to obtain a competition curve from which its IC50 is calculated.

Compound | GI50 [1] | Kd [2]
CCNC(=O)C[C@@H]1N=C(c2ccc(CCCOC3CCN(c4ccc(C(=O)N[C@H]5CC[C@H](Oc6ccc(C#N)c(Cl)c6)CC5)nn4)CC3)cc2)c2c(sc(C)c2C)-n2c(C)nnc21 [I-17] | < 0.5 µM | –
CCNC(=O)C[C@@H]1N=C(c2ccc(OCC3CN(c4ccc(C(=O)N[C@H]5CC[C@H](Oc6ccc(C#N)c(Cl)c6)CC5)nn4)C3)cc2)c2c(sc(C)c2C)-n2c(C)nnc21 [I-29] | < 0.5 µM | < 0.05 µM
CCNC(=O)C[C@@H]1N=C(c2ccc(OCCOCCOC3CCN(c4ccc(C(=O)N[C@H]5CC[C@H](Oc6ccc(C#N)c(Cl)c6)CC5)nn4)CC3)cc2)c2c(sc(C)c2C)-n2c(C)nnc21 [I-10] | < 0.5 µM | < 0.05 µM
CCNC(=O)C[C@@H]1N=C(c2ccc(OCCOC3CCN(c4ccc(C(=O)N[C@H]5CC[C@H](Oc6ccc(C#N)c(Cl)c6)CC5)nn4)CC3)cc2)c2c(sc(C)c2C)-n2c(C)nnc21 [I-8] | < 0.5 µM | < 0.05 µM
CCNC(=O)C[C@@H]1N=C(c2ccc(CC3CCN(c4ccc(C(=O)N[C@H]5CC[C@H](Oc6ccc(C#N)c(Cl)c6)CC5)nn4)CC3)cc2)c2c(sc(C)c2C)-n2c(C)nnc21 [I-20] | 0.5 to 1.5 µM | < 0.05 µM
CCNC(=O)C[C@@H]1N=C(c2ccc(N3CCC(OC4CCN(c5ccc(C(=O)N[C@H]6CC[C@H](Oc7ccc(C#N)c(Cl)c7)CC6)nn5)CC4)CC3)cc2)c2c(sc(C)c2C)-n2c(C)nnc21 [I-44] | – | < 0.05 µM
Cc1sc2c(c1C)C(c1ccc(Cl)cc1)=N[C@@H](CC(=O)NCCOCCOCCOC1CCN(c3ccc(C(=O)N[C@H]4CC[C@H](Oc5ccc(C#N)c(Cl)c5)CC4)nn3)CC1)c1nnc(C)n1-2 [I-2, N-[4-(3-chloro-4-cyano-phenoxy)cyclohexyl]-6-[4-[2-[2-[2-[[2-[(9S)-7-(4-chlorophenyl)-4,5,13-trimethyl-3-thia-1,8,11,12-tetrazatricyclo[8.3.0.0^2,6]trideca-2(6),4,7,10,12-pentaen-9-yl]acetyl]amino]ethoxy]ethoxy]ethoxy]-1-piperidyl]pyridazine-3-carboxamide] | 1.5 to 3 µM | < 0.05 µM
Cc1sc2c(c1C)C(c1ccc(Cl)cc1)=N[C@@H](CC(=O)NCCOC1CCN(c3ccc(C(=O)N[C@H]4CC[C@H](Oc5ccc(C#N)c(Cl)c5)CC4)nn3)CC1)c1nnc(C)n1-2 [I-1, N-[4-(3-chloro-4-cyano-phenoxy)cyclohexyl]-6-[4-[2-[[2-[(9S)-7-(4-chlorophenyl)-4,5,13-trimethyl-3-thia-1,8,11,12-tetrazatricyclo[8.3.0.0^2,6]trideca-2(6),4,7,10,12-pentaen-9-yl]acetyl]amino]ethoxy]-1-piperidyl]pyridazine-3-carboxamide] | < 0.5 µM | < 0.05 µM
CCNC(=O)C[C@@H]1N=C(c2ccc(OCCCN(C)c3ccc(C(=O)N[C@H]4CC[C@H](Oc5ccc(C#N)c(Cl)c5)CC4)nn3)cc2)c2c(sc(C)c2C)-n2c(C)nnc21 [I-48] | 0.5 to 1.5 µM | < 0.05 µM
CCNC(=O)C[C@@H]1N=C(c2ccc(N3CC4(C3)CN(c3ccc(C(=O)N[C@H]5CC[C@H](Oc6ccc(C#N)c(Cl)c6)CC5)nn3)C4)cc2)c2c(sc(C)c2C)-n2c(C)nnc21 [I-24] | < 0.5 µM | < 0.05 µM
